Values of other authors in US20110136913A1, “ASSESSING AND TREATING BREAST CANCER PATIENTS” (priority 2008, published 2011).

Tested on: MCF-7 cell lines that stably over express exogenous HER-2
Details: MCF-7 cells over expressing HER-2, mouse model

## CC/C(=C(\c1ccccc1)c1ccc(OCCN(C)C)cc1)c1ccccc1 [tamoxifen]
  Effect on tumor growth: potent agonist on tumor growth
